Measurements reported in US20020115619A1, “Compositions and methods for treatment of cystic fibrosis” (priority 2000, published 2002).

Key:
[1] = cited from earlier work
rat αβγENaC = assay: Amiloride-sensitive whole-cell current in Xenopus oocytes injected with αβγENaC cRNAs; type: cell-based
Experimental: (§1) Human WT-CFTR, human ΔF508-CFTR, and mouse α−, β−and γ ENaC cRNAs were prepared using a cRNA synthesis kit (m-MESSAGE mMACHINE, Ambion Inc, Austin, Tex.) according to the manufacturer's protocol. cRNA concentrations were determined spectroscopically. Oocytes obtained from adult female Xenopus laevis (NASCO Fort Atkinson, Wis.) were defolliculated and maintained at 18° C. in modified Barth's saline (88 mM NaCl, 1 mM KCl, 2.4 mM NaHCO3, 15 mM Hepes pH 7.6, 0.3 mM Ca(NO3)2, 0.41 mM CaCl2, 0.82 MM MgSO4, 10 μg/ml sodium penicillin, 10 μg/ml streptomycin sulfate, 100 μg/ml gentamicin sulfate). […]
(§2) Whole-cell current measurements were made 24 to 48 hours after injection using the two-electrode voltage clamp method (GeneClamp 500 amplifier-Axon Instruments, Foster City, Calif.). […] The whole-cell currents were measured by voltage clamping the oocytes in 20 mV steps between −140 mV to +60 mV adjusted for baseline transmembrane potential. Whole cell currents (I) were digitized at 200 Hz during the voltage steps, recorded directly onto a hard disk and analyzed using pClamp 8 software (Axon Instruments, Foster City, Calif.). […]
The difference in whole-cell currents measured in the absence and presence of 10 μM amiloride was used to define the amiloride-sensitive Na^+current that was mediated by ENaC. […] Whole-cell currents were measured at −100 mV. […]

[2] = 16 milligrams per kilogram per day, oral; cited from earlier work
ΔF508-CFTR [3] = molecular target: T1, ΔF508-CFTR (Homo sapiens, UniProt P13569, DEL508-508); details: cited from earlier work
T1 sequence (P13569 with tags, fused parts or gaps DEL508-508): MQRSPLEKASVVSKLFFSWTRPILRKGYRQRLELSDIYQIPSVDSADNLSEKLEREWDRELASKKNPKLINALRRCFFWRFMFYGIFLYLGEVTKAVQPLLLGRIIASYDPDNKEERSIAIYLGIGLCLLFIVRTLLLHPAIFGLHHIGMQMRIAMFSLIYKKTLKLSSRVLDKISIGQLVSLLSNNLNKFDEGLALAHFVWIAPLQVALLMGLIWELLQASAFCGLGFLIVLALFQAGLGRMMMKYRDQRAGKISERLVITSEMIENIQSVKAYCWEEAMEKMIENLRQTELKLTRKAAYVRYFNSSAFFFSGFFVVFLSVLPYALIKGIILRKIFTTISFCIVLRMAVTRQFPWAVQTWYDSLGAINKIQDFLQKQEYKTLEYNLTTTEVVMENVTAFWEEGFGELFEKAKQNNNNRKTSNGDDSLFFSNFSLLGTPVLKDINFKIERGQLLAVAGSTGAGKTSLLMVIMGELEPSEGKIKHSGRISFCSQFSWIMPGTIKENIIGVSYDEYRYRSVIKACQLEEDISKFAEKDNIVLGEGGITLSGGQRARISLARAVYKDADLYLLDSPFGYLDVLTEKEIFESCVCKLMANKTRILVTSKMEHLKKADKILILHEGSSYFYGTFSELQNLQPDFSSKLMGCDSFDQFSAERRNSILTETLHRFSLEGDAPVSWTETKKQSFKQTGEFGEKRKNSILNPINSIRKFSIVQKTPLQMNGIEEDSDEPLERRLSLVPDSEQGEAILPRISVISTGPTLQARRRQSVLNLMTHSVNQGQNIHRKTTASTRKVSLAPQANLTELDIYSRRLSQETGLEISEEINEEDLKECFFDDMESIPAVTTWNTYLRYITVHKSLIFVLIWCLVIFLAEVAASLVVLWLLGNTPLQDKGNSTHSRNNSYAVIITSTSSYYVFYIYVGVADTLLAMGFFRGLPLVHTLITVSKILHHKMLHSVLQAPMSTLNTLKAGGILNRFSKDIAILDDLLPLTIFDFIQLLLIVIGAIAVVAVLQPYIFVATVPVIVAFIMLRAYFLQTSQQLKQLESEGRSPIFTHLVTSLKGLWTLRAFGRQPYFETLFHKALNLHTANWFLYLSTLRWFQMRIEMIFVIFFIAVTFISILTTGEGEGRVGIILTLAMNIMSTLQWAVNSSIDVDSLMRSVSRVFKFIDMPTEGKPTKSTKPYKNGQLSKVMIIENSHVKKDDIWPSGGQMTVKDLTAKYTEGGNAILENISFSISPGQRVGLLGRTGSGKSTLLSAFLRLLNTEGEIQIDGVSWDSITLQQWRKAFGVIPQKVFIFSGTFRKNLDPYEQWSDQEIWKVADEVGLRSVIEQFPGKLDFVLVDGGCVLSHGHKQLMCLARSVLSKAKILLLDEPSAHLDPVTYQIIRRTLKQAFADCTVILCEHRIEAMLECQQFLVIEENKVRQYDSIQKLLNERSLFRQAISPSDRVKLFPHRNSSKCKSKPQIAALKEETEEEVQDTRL

human WT-CFTR = molecular target: T2, human WT-CFTR (Homo sapiens, UniProt P13569); assay: Two-electrode voltage clamp whole-cell current in Xenopus oocytes injected with WT-CFTR cRNA; type: cell-based; details: FIG. 9
T2 construct: expressed in transfected cells; host or cells: Xenopus laevis oocytes, cRNA injection (10 ng)
T2 sequence (P13569 whole entry): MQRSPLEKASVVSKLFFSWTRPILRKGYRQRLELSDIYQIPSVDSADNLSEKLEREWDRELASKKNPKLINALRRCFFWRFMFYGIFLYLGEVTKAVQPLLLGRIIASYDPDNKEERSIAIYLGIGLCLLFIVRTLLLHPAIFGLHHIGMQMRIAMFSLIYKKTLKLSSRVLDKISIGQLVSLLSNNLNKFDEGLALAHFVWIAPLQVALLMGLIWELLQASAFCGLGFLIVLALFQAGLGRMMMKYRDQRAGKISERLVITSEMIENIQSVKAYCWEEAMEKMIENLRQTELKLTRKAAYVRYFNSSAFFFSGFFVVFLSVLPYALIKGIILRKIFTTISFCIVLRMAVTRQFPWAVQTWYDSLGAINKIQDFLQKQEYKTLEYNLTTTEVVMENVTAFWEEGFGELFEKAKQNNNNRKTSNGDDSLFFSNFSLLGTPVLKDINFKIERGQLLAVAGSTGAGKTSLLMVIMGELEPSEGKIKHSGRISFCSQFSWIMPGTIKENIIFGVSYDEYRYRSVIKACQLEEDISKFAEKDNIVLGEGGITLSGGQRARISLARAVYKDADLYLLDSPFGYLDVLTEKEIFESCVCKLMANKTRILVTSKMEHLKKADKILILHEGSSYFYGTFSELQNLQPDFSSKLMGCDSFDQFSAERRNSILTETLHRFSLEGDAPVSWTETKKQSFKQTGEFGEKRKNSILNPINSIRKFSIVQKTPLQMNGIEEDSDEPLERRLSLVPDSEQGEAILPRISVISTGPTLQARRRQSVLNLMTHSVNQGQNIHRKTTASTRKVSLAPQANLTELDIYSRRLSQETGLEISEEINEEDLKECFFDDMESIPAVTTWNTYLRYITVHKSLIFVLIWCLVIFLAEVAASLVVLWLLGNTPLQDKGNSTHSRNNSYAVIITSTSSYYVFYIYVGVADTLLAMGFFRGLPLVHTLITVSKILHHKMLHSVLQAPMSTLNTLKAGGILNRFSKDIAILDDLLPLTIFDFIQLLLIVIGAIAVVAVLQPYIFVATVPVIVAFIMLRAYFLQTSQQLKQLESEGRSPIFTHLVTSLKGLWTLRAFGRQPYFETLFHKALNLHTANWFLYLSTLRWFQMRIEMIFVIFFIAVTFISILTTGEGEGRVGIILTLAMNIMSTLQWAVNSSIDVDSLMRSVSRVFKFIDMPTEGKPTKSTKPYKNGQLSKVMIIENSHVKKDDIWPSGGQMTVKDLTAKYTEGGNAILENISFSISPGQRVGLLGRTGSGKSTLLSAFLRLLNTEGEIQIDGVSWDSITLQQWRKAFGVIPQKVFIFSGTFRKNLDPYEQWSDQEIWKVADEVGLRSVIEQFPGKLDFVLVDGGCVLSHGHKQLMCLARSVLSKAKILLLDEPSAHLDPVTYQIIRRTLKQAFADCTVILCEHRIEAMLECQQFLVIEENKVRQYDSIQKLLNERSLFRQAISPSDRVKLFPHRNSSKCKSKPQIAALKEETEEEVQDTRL
Experimental: as §1, §2
(§3) The difference in whole-cell currents measured in the absence and presence of 10 μM amiloride was used to define the amiloride-sensitive Na^+current that was mediated by ENaC. […]

ΔF508-CFTR [4] = molecular target: T1, ΔF508-CFTR; assay: Two-electrode voltage clamp whole-cell current in Xenopus oocytes injected with ΔF508-CFTR cRNA; type: cell-based; set-up: expressed in transfected cells; host or cells: Xenopus laevis oocytes, cRNA injection (10 ng); details: −100 mV, FIG. 8
Experimental: as §1, §2, §3

G551D = molecular target: T3, G551D (Homo sapiens, UniProt P13569, G551D); details: G551D patients; standard deviation 1.2 mV; cited from earlier work
T3 construct: host or cells: nasal epithelium of CF patients carrying G551D (endogenous protein)
T3 sequence (P13569 whole entry G551D): as the sequence (P13569 whole entry) above, with G551D counted along it

Structure (SMILES): O=C(O)CCCc1ccccc1 [4PBA, 4-phenylbutyrate]
- commonly reported side effects in chronic therapy ([1]; FDA approved use, urea cycle disorders, 20 grams per day oral): mild stomach upset and an occasional bad taste in the mouth
- side effects related to 4PBA therapy during trial ([1]; pilot CF trial, 19 grams per day, one week): no significant side effects

Structure (SMILES): N=C(N)NC(=O)c1nc(Cl)c(N)nc1N [amiloride]
- inhibition of whole-cell current by amiloride (rat αβγENaC; 10 μM amiloride, oocytes injected with αβγENaC): A large fraction of the current can be inhibited

Structure (SMILES): O=c1c(-c2ccc(O)cc2)coc2cc(O)cc(O)c12 [genistein]
- side effects in Phase I clinical trials [2]: no side effects noted
- enhancement of cAMP-dependent activation of ΔF508-CFTR (ΔF508-CFTR [3]): ≤ 20 fold
- activation of ΔF508-CFTR by the compound itself (ΔF508-CFTR [3]; without cAMP stimulation): does not activate ΔF508-CFTR by itself
- WT-CFTR whole-cell current after forskolin/IBMX plus genistein (human WT-CFTR; 10 μM forskolin/100 μM IBMX/50 μM genistein): 2.57±0.45 μA
- fold increase of forskolin/IBMX-stimulated WT-CFTR current by addition of genistein (human WT-CFTR; 50 μM genistein, −100 mV): 2 fold
- ΔF508-CFTR-mediated whole-cell current after forskolin/IBMX/genistein (ΔF508-CFTR [4]; 10 μM forskolin/100 μM IBMX/50 μM genistein, ΔF508-CFTR alone): 1.82±0.4 μA
- fold increase of forskolin/IBMX-stimulated ΔF508-CFTR-mediated current by addition of genistein (ΔF508-CFTR [4]; 50 μM genistein added to 10 μM forskolin/100 μM IBMX): 5 fold
- effect on amiloride-sensitive current of genistein alone or added before forskolin/IBMX (rat αβγENaC; ENaC alone, unpublished data): decreased
- average repolarization of the NPD during genistein perfusion (G551D): 2.4 mV
